This note sets out measurements from publication doi:10.1101/2021.02.26.433144v1 (biorxiv, 2021).

Test in all cases: spectrophotometric oxidation assay, non-linear regression
What all share (settings): 0.1 M sodium phosphate pH 7, 40 °C, 0-5 mM substrate

Assay [1] has as its target T1, TtPPO (Thermothelomyces thermophilus, UniProt G2QLD3, G312N/L326A).
T1 sequence (G2QLD3 23-424 G312N/L326A): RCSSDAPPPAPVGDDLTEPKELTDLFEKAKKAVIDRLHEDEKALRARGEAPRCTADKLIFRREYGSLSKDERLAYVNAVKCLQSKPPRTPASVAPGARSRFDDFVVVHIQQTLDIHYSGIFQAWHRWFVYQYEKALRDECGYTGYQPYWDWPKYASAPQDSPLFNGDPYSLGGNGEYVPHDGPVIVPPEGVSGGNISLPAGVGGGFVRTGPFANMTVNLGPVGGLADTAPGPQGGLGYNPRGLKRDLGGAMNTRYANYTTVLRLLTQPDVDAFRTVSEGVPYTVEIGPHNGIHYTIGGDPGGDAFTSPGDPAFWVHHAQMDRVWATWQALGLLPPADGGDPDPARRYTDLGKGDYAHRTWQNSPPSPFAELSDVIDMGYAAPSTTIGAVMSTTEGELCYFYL

Assay [2] deals with T2, TtPPO (Thermothelomyces thermophilus, UniProt G2QLD3, G312N).
T2 sequence (G2QLD3 23-424 G312N): T1 sequence (G2QLD3 23-424 G312N/L326A) with A304L

Assay [3] has as its target T3, TtPPO (Thermothelomyces thermophilus, UniProt G2QLD3, L326A).
T3 sequence (G2QLD3 23-424 L326A): T1 sequence (G2QLD3 23-424 G312N/L326A) with N290G

In assay [4] the target is T4, TtPPO (Thermothelomyces thermophilus, UniProt G2QLD3).
T4 sequence (G2QLD3 23-424): T1 sequence (G2QLD3 23-424 G312N/L326A) with N290G, A304L

Assay [5] has as its target T5, TtPPO (Thermothelomyces thermophilus, UniProt G2QLD3, G312N/Y316V).
T5 sequence (G2QLD3 23-424 G312N/Y316V): T1 sequence (G2QLD3 23-424 G312N/L326A) with Y294V, A304L

Assay [6] concerns the target T6, TtPPO (Thermothelomyces thermophilus, UniProt G2QLD3, Y316V).
T6 sequence (G2QLD3 23-424 Y316V): T1 sequence (G2QLD3 23-424 G312N/L326A) with N290G, Y294V, A304L

Residue numbers refer to the chain shown, from its start.

As for `Oc1ccc(Cl)cc1O` [4-chlorocatechol], the Km turned out to be 500 µM at TtPPO [1]; 3500 µM at TtPPO [2]; 400 µM at TtPPO [3]; 1800 µM at TtPPO [4]; 4300 µM on TtPPO [5]; 2200 µM at TtPPO [6].
